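Results reflect a 48-hour exposure of cells in 96-well plates to compound at five concentrations. Here, GI50 denotes the concentration required for 50% inhibition of growth. TGI denotes the concentration required for complete inhibition of growth.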

Assay in all cases: NCI-60 cell line screen, 48 h
Assay [1] has as its system MDA-MB-435.
Assay [2] deals with OVCAR-4 ovarian.
Assay [3] has as its system EKVX NSCLC.
The subject of assay [4] is UACC-62 melanoma.
Assay [5] has as its system HOP-92 NSCLC.
In assay [6] the test system is U251 CNS.
In assay [7] the test system is NCI-H226 lung.
Assay [8] has as its system SNB-19 CNS.
Assay [9] deals with ACHN renal.
Assay [10] deals with KM12 colon.

As for `CCC/C(Cl)=N\OC(=O)Nc1ccc(F)c([N+](=O)[O-])c1`, the TGI in [1] is 30.4 µM; in [2] it was 28.9 µM; in assay [3], 29.9 µM; in assay [4], 37.7 µM; in [5] it was 31.7 µM; in assay [6], 37.3 µM. Besides, the TGI in assay [7] stood at 55.7 µM; in assay [8], 28.5 µM; in assay [9], 18.1 µM; in assay [10], 32.7 µM.
As for `CCOC(=O)C1C[C@H]2CO[C@H](c3ccccc3)N2C1=O` (stereo partly specified), the TGI in assay [1], in assay [2], in [3], in assay [4], in [5] and in assay [6] was above 100 µM in each case. The TGI in [7], in assay [8], in assay [9] and in [10] was above 100 µM throughout.
In the case of `O=C(CCc1ccc(O)c(O)c1)NCCc1ccc(O)c(O)c1`, the TGI in [1] is 31.8 µM; in assay [2], 33.7 µM; in [3] it was above 100 µM; in assay [4], above 100 µM; in assay [5], above 100 µM; in [6], 31 µM. Besides, the TGI in assay [7], in assay [8], in [9] and in assay [10] was above 100 µM in each case.
With `O=C1c2ccccc2-c2nnc(-c3ccc(Cl)cc3)cc21`, the TGI in assay [1], in assay [2], in assay [3], in assay [4], in [5] and in assay [6] was above 10 µM in each case. Besides, the TGI in [7], in assay [8], in [9] and in assay [10] was above 10 µM in each case.
Take `CCOc1cc2c(cc1O)CC[C@@H]1[C@@H]2CC[C@]2(C)C(OS(=O)OC3CC[C@@H]4[C@H]5CCc6cc(O)c(OCC)cc6[C@@H]5CC[C@@]34C)CC[C@@H]12` (stereo partly specified): the TGI was 0.548 µM in [1]; above 64.5 µM in assay [2]; above 37.7 µM in [3]; 30.9 µM in assay [4]; above 100 µM in assay [5]; 1.4 µM in assay [6]. Besides, the TGI is 14.6 µM in assay [7], 30.4 µM in [8], above 81.7 µM in [9] and above 35.1 µM in assay [10].
As for `C=CC[C@@H]1C=C[C@@H](C(=O)OC)n2c(=O)n(-c3ccccc3)c(=O)n21`, the TGI in assay [1], in assay [2], in assay [3], in [4], in [5] and in assay [6] was above 100 µM each time. Moreover, the TGI in assay [7], in assay [8], in [9] and in assay [10] was above 100 µM in each case.
Take `Cc1[nH]c(=O)nc2nc3ccc(Cl)cc3c(NC(C)(CO)CO)c12`: the TGI in assay [1], in assay [2], in [3], in assay [4], in assay [5] and in assay [6] was above 100 µM each time. Also, the TGI is above 100 µM in [7], above 95.3 µM in assay [8], above 100 µM in assay [9] and above 100 µM in assay [10].
With `NC(=O)C[C@H](NC(=O)C1(NC(=O)[C@H](Cc2ccc(CP(=O)(O)O)cc2)NC(=O)C(=O)O)CCCCC1)C(=O)NCCCc1cccc2ccccc12`, the TGI in [1], in assay [2], in assay [3], in assay [4], in assay [5] and in [6] was above 10 µM each time. Besides, the TGI in assay [7], in assay [8], in [9] and in assay [10] was above 10 µM throughout.
In the case of `CCCCC1(N=[N+]=[N-])C(=O)C2C=CC=C3c4ccccc4N(C1=O)C32` (stereo unspecified), the TGI in assay [1] was above 31.6 µM; in assay [2], above 31.6 µM; in assay [3] it was above 31.6 µM; in assay [4] it was above 31.6 µM; in assay [5], above 10 µM; in [6], above 31.6 µM. Besides, the TGI in assay [7], in [8], in assay [9] and in [10] was above 31.6 µM throughout.
With `COc1cccc2c1-c1c(OC)cccc1SS2`, the TGI in assay [1] worked out at 15.1 µM; in [2], 90.5 µM; in assay [3], 31.4 µM; in assay [4], 92.5 µM; in [5], 36 µM; in assay [6] it was 46.8 µM. In addition, the TGI in [7] is 42.7 µM; in [8] it was 76.7 µM; in assay [9], above 100 µM; in assay [10], above 100 µM.
Consider `COc1ccc(N2C(N)=C(C#N)C(C#N)(C#N)C2c2cccc([N+](=O)[O-])c2)cc1` (stereo unspecified), for which the TGI in [1] came out at 31.9 µM; in assay [2], 32 µM; in [3], 39.7 µM; in assay [4] it was 30.1 µM; in assay [5], 26.2 µM; in assay [6], 31.7 µM. Besides, the TGI in [7] came out at 35.4 µM; in assay [8], 32.5 µM; in assay [9], 27.4 µM; in assay [10], 33.9 µM.
Consider `O=[N+]([O-])c1ccc2nc(/C=C(\O)c3ccccc3)c(/C=C(\O)c3ccccc3)nc2c1`, for which the TGI in assay [1] is above 56.2 µM; in [2] it was 32.5 µM; in assay [3], above 100 µM; in [4], 18.8 µM; in assay [5], 5.63 µM; in assay [6], 22.9 µM. Also, the TGI in assay [7], in [8], in assay [9] and in assay [10] was above 100 µM in each case. Besides, in [5], the GI50 was 0.195 µM.
Consider `CN(C)CCCNc1cnc2cc3ccccc3cc2n1`, for which the TGI in [1] is 79.2 µM; in [2], 91.4 µM; in assay [3], above 100 µM; in [4] it was 30 µM; in [5], 95.8 µM; in [6], above 100 µM. Moreover, the TGI was 40.6 µM in assay [7], above 100 µM in [8], above 100 µM in [9] and 47.4 µM in [10].
`Cc1oncc1NC1=CC(=O)C(=O)c2ccccc21`: the TGI amounted to 3.51 µM in assay [1]; 12.9 µM in assay [2]; 32.5 µM in assay [3]; 8.4 µM in assay [4]; 24 µM in assay [5]; 17.3 µM in [6]. Moreover, the TGI in assay [7] turned out to be 39.4 µM; in assay [8], 46.8 µM; in assay [9], 16.7 µM; in assay [10], 42.1 µM.
With `COc1cc(O)c2c(=O)c(OC)c(-c3ccc4c(c3)OCO4)oc2c1OC`, the TGI in assay [1] is above 50 µM; in [2], above 50 µM; in assay [3], above 50 µM; in assay [4] it was above 50 µM; in assay [5], 44.2 µM; in assay [6], above 50 µM. Moreover, the TGI in assay [7], in assay [8], in [9] and in assay [10] was above 50 µM throughout.
`CNC(=O)c1ccccc1[S+]1c2cccc3cccc(c23)C(=O)N1C` (stereo unspecified): the TGI in assay [1], in assay [2], in assay [3], in assay [4], in assay [5] and in [6] was above 100 µM in each case. The TGI in assay [7], in [8], in assay [9] and in [10] was above 100 µM each time.
Regarding `CNc1ncnc2c1nnn2C`, the TGI in assay [1], in assay [2], in assay [3], in assay [4], in assay [5] and in assay [6] was above 100 µM in each case. In addition, the TGI in [7], in assay [8], in assay [9] and in assay [10] was above 100 µM each time.
For the molecule `O=C(Cn1c(=O)oc2ccc(C(=O)c3ccccc3Cl)cc21)c1ccc([N+](=O)[O-])cc1`, the TGI was 46.6 µM in [1]; above 100 µM in [2]; above 100 µM in assay [3]; 40.7 µM in assay [4]; above 100 µM in assay [5]; above 100 µM in assay [6]. The TGI in assay [7] is above 100 µM; in [8], above 100 µM; in assay [9], above 100 µM; in assay [10] it was 58.1 µM.
Take `COP(=O)(OC)c1ccc(NCc2cc(O)ccc2O)cc1`: the TGI in assay [1] is 74.1 µM; in [2], above 59 µM; in [3], 56.4 µM; in assay [4], 43.9 µM; in assay [5] it was 45.5 µM; in assay [6], above 72.1 µM. Moreover, the TGI in assay [7] is above 77.9 µM; in [8], above 100 µM; in [9], 32.2 µM; in assay [10], 38.4 µM.
As to `Cc1cc2c(cc1-c1cc3c(cc1C)C(C(C)C)=C(O)C(=O)/C3=C\Nc1c(C)n(C)n(-c3ccccc3)c1=O)/C(=C/Nc1c(C)n(C)n(-c3ccccc3)c1=O)C(=O)C(O)=C2C(C)C`, the TGI in assay [1], in assay [2], in [3], in assay [4], in assay [5] and in assay [6] was above 100 µM in each case. Also, the TGI in [7], in assay [8], in assay [9] and in assay [10] was above 100 µM in each case.
As to `COc1ccc(CCNC(=O)CCCCCO)cc1OC`, the TGI in assay [1], in [2], in assay [3], in assay [4], in assay [5] and in assay [6] was above 100 µM throughout. For the same molecule, the TGI in assay [7], in assay [8], in assay [9] and in [10] was above 100 µM in each case.
`CN(C)CCNC(=O)c1cccc2[nH]c(-c3ccncc3)nc12`: the TGI was 3.63 µM in [1]; above 100 µM in assay [2]; 73.7 µM in [3]; 10.8 µM in assay [4]; 20.7 µM in [5]; 9.82 µM in [6]. Moreover, the TGI is above 50.5 µM in assay [7], above 63.2 µM in assay [8], 28.4 µM in [9] and above 35.7 µM in assay [10].
Turning to `NC(=O)c1ncn2c(=O)n(CCl)nnc12`, the TGI in assay [1], in assay [2], in assay [3], in assay [4], in assay [5] and in assay [6] was above 100 µM each time. For the same molecule, the TGI in [7], in assay [8], in assay [9] and in [10] was above 100 µM in each case.
In the case of `CSC1(SC)N2Cc3ccccc3N=C2C1(c1ccccc1)c1ccccc1`, the TGI in assay [1] is 16 µM; in [2], above 100 µM; in [3], above 89 µM; in assay [4], above 55.3 µM; in assay [5], above 27.3 µM; in assay [6], above 58.9 µM. Moreover, the TGI in assay [7] was above 100 µM; in [8], above 100 µM; in [9], above 100 µM; in assay [10], above 35.6 µM.

Values taken from PubChem BioAssay (NCI).
